Assay results as given in publication PMC5591577, “Computationally-guided optimization of small-molecule inhibitors of the Aurora A kinase–TPX2 protein–protein interaction” (Chemical Communications (Cambridge, England), 2017).

What was measured:
[1] = target: T1, Aurora A kinase (Homo sapiens, UniProt O14965); assay: X-ray crystal structure (Ki by fluorescence anisotropy, from ref […]); assay type: binding; parameters: gene AURKA; settings: cited from earlier work
T1 sequence (O14965 1-403): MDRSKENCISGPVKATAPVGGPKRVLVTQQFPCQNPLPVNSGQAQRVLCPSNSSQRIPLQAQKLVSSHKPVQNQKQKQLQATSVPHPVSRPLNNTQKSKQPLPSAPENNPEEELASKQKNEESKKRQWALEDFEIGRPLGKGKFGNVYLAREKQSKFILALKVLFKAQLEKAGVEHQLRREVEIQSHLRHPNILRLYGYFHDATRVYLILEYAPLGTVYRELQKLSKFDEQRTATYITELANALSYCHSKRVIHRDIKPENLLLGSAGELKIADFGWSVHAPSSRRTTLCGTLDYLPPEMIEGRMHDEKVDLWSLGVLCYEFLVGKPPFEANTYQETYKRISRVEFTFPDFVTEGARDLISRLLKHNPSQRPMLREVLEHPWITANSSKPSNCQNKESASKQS

[2] = target: T1, Aurora A kinase; assay: fluorescence anisotropy competition assay (TPX2 displacement); assay type: binding; parameters: gene AURKA; with TPX2; settings: read-out: K i ^b

Compound	Ki [1] [µM]	Ki [2] [µM]
O=C(O)c1cc(-c2cccc(F)c2)nc2ccccc12 [compound 2]	16.5	
Cc1ccc(-c2cc(C(=O)O)c3ccccc3n2)cc1F [compound 9]		8.7
Cc1ccc(-c2cc(C(=O)O)c3ccccc3n2)cc1Br [compound 10]		2.3
